Our source for the IC50 values is patent publication US8466186B2, “Compounds” (Boehringer Ingelheim International GmbH, priority 2010, dated 2013).

The structures appear in SMILES notation.

The target of this assay is T1, recombinant human mPGES-1 (Homo sapiens, UniProt O14684).
T1 construct: made in house; host or cells: Rosetta E. coli (membrane/microsome fraction)
T1 sequence (O14684 1-152): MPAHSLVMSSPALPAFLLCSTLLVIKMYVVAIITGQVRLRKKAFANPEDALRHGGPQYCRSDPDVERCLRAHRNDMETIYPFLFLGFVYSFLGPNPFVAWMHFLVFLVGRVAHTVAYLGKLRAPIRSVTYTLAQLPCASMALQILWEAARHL
Kind of assay: Assay B: mPGES-1 enzyme assay (modified). The class given is biochemical. Conditions: biological assay B (modified); PGH2 final conc. 2 μM; read-out: mPGES-1 inhibitory effect IC50. On the procedure:
Assay B: mPGES-1 Enzyme Assay (Modified)
Microsomes from Rosetta E. coli bacteria expressing recombinant human mPGES-1 can be derived as described below:
Inoculate 5 ml LB with Ampicilin (50 μg/ml) and Chloramphenicol (34 μg/ml) with bacteria from freeze culture. Incubate 8 h at 37° C. with 200 rpm. Thereafter, inoculate 500-1000 ml LB containing Ampicilin and Chloramphenicol with the 5 ml on culture and grow to OD640 of 0.8-1.0. Chill the culture to +4° C. before induction. Induce the culture with IPTG at a final concentration of 400 μM. Express the protein at room temp 18-23° C. with 200 rpm shaking overnight.
The following steps can be performed on the following day: • 1. Spin down the cells in 250 ml centrifuge flasks for 15 min at 7000 rpm (Beckmann Coulte Avanti J-E centrifuge) • 2. Dissolve the pellet from 250 ml culture in 12.5 ml homogenization buffer • 3. (15 mM Tris-HCL pH8, 1 mM EDTA pH8, […], 2.5 mM GSH, 1 Tablet Protease inhibitor per 50 ml buffer) • 4. Disintegrate the cells by sonication, 5×10 seconds at 48% amplitude of a 750 W sonifier • 5. Add 2.5 ml MgCl2 (100 mM) and DNase 12.5 μl (0.8 mg/ml) and incubate on ice for 30 min • 6. Spin down the bacteria debris and save the supernatant, 7000 rpm for 15 min • 7. Isolate the protein containing membranes in the supernatant by ultracentrifugation 120000×g for 2 hour at 4° C. (Sorvall T880 rotor). • 8. Discard the supernatant and dissolve the pellet in 20 mM Potassium phosphate buffer pH7.4 (KH2PO4 and K2HPO4) buffer by sonication (5×10 s, 30% of a 50 W sonifier) and aliquot the enzyme and store aliquots at −80° C.
Before each experiment is performed an aliquot of the enzyme is thawed and it can then be dissolved in 0.1 M Potassium phosphate buffer pH7.4 (KH2PO4 and K2HPO4) buffer containing 2.5 mM GSH.
The aim of this assay is to determine the affinity of a test compound for the mPGES-1 enzyme.
47 μl of recombinant human mPGES-1 (˜0.5 μg protein/well) containing microsomal suspension in a buffer containing GSH, (2.5 mmol/L L-Glutathione reduced, dissolved in 0.1 mol/L Phosphat Buffer pH 7.4) is dispensed in a 384-well plate and thereafter 1 μl of the test compound(s) is/are added and incubated for 25 minutes at room temperature. The enzyme reaction is started by the addition of 2 ul PGH2 (final conc. 2 μM) dissolved in water-free Diglyme. After 60 seconds the reaction is terminated by addition of a stop solution containing FeCl2 (10 μL 0.074 mol/l FeCl2). The samples are diluted between 1:25 in PBS (Phosphate Buffered Saline). 10 μl of the diluted samples are transferred to 384-well low volume plate. In order to quantify the amount of PGE2 that has been formed, a homogenous time resolved fluorescent (HTRF) detecting of PGE2 has been performed using a commercially available kit from Cisbio according to the manufactures recommendation. This HTRF-based assay has been described in detail (see: Goedken et al., J Biomol Screen, 2008, 13(7), 619-625). Briefly, the diluted samples are mixed with 5 μl PGE2-d2 conjungate and 5 μl anti-PGE2 cryptate conjungate. After an incubation period of the plates overnight, the fluorescence is measured by the use of an appropriate microplate reader.
The fluorescence of Europium cryptate (maxex=307 nm, maxem=620 nm) and d2-PGE2 (maxex=620 nm, maxem=665 nm) are measured.
The extent of the specific HTRF is measured as a ratio of the emission intensity at 665 nm vs. that at 620 nm at an excitation puls of 320 nm. The quantification plate contains also wells with different concentrations of PGE2 as calibration curve for the calculation of the PGE2 concentrations from the HTRF ratio values.
From all mPGES enzyme assay the background is subtracted and the IC50 is calculated over a nonlinear regression with conventional software.
What is called IC50 is the concentration needed to halve the response being measured. On to `Cn1c(Nc2cc(CNC(=O)C(C)(C)C)ccc2Cl)nc2cc(N3CCC(C(F)(F)F)CC3)ccc21` [Example 12], for which the IC50 was 174 nM.
Consider `Cn1c(Nc2c(Cl)ccc(CNC(=O)C(C)(C)C)c2F)nc2cc(Cl)c(N3CCC(F)CC3)cc21` [Example 33, N-{2-Fluoro-4-chloro-3-[5-chloro-1-methyl-6-(4-fluoro-piperidin-1-yl)-1H-benzimidazol-2-ylamino]-benzyl}-2,2-dimethyl-propionamide], for which the IC50 is 3 nM.
Consider `CN(CC(C)(C)O)c1cc2c(cc1Cl)nc(Nc1c(Cl)ccc(CNC(=O)C(C)(C)C)c1F)n2C` [Example 37], for which the IC50 was determined as 7.8 nM.
Regarding `CC(C)(C)C(=O)NCc1ccc(Cl)c(Nc2nc3cc(Cl)c(N4CCC(C(F)(F)F)CC4)cc3[nH]2)c1Cl` [Example 40, N-{2,4-Dichloro-3-[5-chloro-6-(4-trifluoromethyl-piperidin-1-yl)-1H-benzimidazol-2-ylamino]-benzyl}-2,2-dimethyl-propionamide], the half-inhibitory concentration (IC50) was found to be 5.7 nM.
On to `CC(C)(C)C(=O)NCc1ccc(Cl)c(Nc2nc3cc(Cl)c(N4CCC(F)CC4)cc3[nH]2)c1F` [Example 48], for which the IC50 was determined as 9 nM.
With `Cn1c(Nc2c(Cl)ccc(CNC(=O)OC(C)(C)C)c2Cl)nc2cc(Cl)c(N3CCCC(C(F)(F)F)C3)cc21` (stereo not drawn) [Example 51], the 50% inhibitory concentration (IC50) was 23 nM.
Turning to `CC(C)(C)C(=O)NCc1ccc(Cl)c(Nc2nc3cc(Cl)c(N4CCCC(C(F)(F)F)C4)cc3[nH]2)c1Cl` (stereo not drawn) [Example 52], the half-inhibitory concentration (IC50) is 2.2 nM.
In the case of `Cn1c(Nc2c(Cl)ccc(CNC(=O)C(C)(C)C)c2Cl)nc2cc(Cl)c(N3CCCC(C(F)(F)F)C3)cc21` (stereo not drawn) [Example 53] it was 3.5 nM.
On to `Cn1c(Nc2c(Cl)ccc(CNC(=O)C(C)(C)C)c2Cl)nc2cc(Cl)c(N3CCC(C(F)(F)F)C3)cc21` (stereo not drawn) [Example 59], for which the IC50 came to 2 nM.
As to `CC(C)(C)C(=O)NCc1ccc(Cl)c(Nc2nc3cc(C(F)(F)F)c(N4CCC(C(F)(F)F)CC4)cc3[nH]2)c1Cl` [Example 61, N-{2,4-Dichloro-3-[5-trifluoromethyl-6-(4-trifluoromethyl-piperidin-1-yl)-1H-benzimidazol-2-ylamino]benzyl}-2,2-dimethyl-propionamide], the IC50 is 5 nM.
In the case of `Cn1c(Nc2c(F)ccc(CNC(=O)C(C)(C)C)c2F)nc2cc(Cl)c(N3CCC(C(F)(F)F)CC3)cc21` [Example 70, N-{2,4-Difluoro-3-[5-chloro-1-methyl-6-(4-trifluoromethyl-piperidin-1-yl)-1H-benzimidazol-2-ylamino]-benzyl}-2,2-dimethyl-propionamide], the IC50 worked out at 6.5 nM.
Turning to `Cn1c(Nc2cc(CNC(=O)C3(C(F)(F)F)CC3)ccc2Cl)nc2cc(Cl)c(N3CCN(CC(F)(F)F)CC3)cc21` [Example 92], the IC50 came out at 39 nM.
As to `Cn1c(Nc2cc(CNC(=O)C(C)(C)C(F)(F)F)ccc2Cl)nc2cc(Cl)c(N3CCC(c4ccccc4)CC3)cc21` [Example 97], the IC50 was 3.1 nM.
In the case of `Cn1c(Nc2cc(CNC(=O)C(C)(C)C(F)(F)F)ccc2Cl)nc2cc(Cl)c(N3CCN(c4ccc(C(F)(F)F)cc4)CC3)cc21` [Example 98] it was 6.5 nM; in that of `CC(C)(C)C(=O)NCc1ccc(Cl)c(Nc2nc3cc(C#N)c(N4CCC(C(F)(F)F)CC4)cc3[nH]2)c1Cl` [Example 131], 5 nM.
